Drawing on patent publication US20100035993A1, “METHODS AND COMPOSITIONS COMPRISING 2-[(3-CHLOROPHENYL) AMINO] PHENYLACETIC ACID FOR HYPERPERMEABILITY AND NEOVASCULARIZATION DISORDERS OF THE RETINA” (priority 2008, published 2010), this text covers VEGF and PEDF for one compound.

In test [1] the test system is VEGF. The test can be described thus: VEGF in vitreous of streptozotocin-diabetic rats, immunoassay. The class given is in vivo, rat. To be noted: vitreous of male streptozotocin-diabetic rats treated for 26 weeks with 15 mg/kg/day by gavage; Normal Control 75, Diabetic Control 167. Here is the method:
(§1) Vitreous was harvested from male rats that were rendered diabetic by intravenous injection of streptozotocin and that were treated for 26 weeks with 23CPPA (15 mg/kg/day) administered by gavage, and from age and gender matched diabetic and nondiabetic control rats. PEDF and VEGF were measured by immunoassay. The relative ratio of VEGF to PEDF in diabetic control rats and diabetic rats treated with 23CPPA was compared to that in nondiabetic control rats which was assigned an arbitrary value of 1.0.

Test [2] has as its system PEDF. The test can be described thus: PEDF in vitreous of streptozotocin-diabetic rats, immunoassay. To be noted: vitreous of male streptozotocin-diabetic rats treated for 26 weeks with 15 mg/kg/day by gavage; Normal Control 15.3, Diabetic Control 4.6. The class given is in vivo, rat. The protocol: as §1

In turn, `O=C(O)Cc1ccccc1Nc1cccc(Cl)c1` [23CPPA, 2-[(3-chlorophenyl)amino]phenylacetic acid] came in with a VEGF in test [1] of 105 pg/mL. In addition, the PEDF in test [2] turned out to be 8.7 ng/mL.
